Values quoted from earlier work in patent US20160287532A1 (SignPath Pharma Inc., priority 2015, published 2016).
Like-named read-outs stand apart in the source and are kept apart here.

Experiments:
MMP-3 [1] = details: helicobacter pylori infected cells; dose dependent
SOX9 = details: IVD cells of patients with acute spinal injury
[2] = test system: macrophage inflammatory protein-1α (MIP-1α); details: monocytes and macrophages
TNF-α [3] = details: peritoneal macrophages
TIMP-1 = details: MDA-MB-231 cells
MMP-3 [4] = target: T1, MMP-3 (Homo sapiens, UniProt P08254); details: IL-1β stimulated chondrocytes
T1 construct: endogenous in cells; host or cells: IL-1β stimulated chondrocytes

[5] = test system: type II collagen-induced arthritis; details: oral, mice; dose dependent manner
interferon-γ = details: splenic T lymphocytes
IL-6 [6] = details: viral induced ARDS mouse model
MMP-2 [7] = details: MDA-MB-231 cells
IL-6 [8] = details: rats with non-bacterial prostatitis
NF-κB [9] = details: IVD cells of patients with acute spinal injury
IL-1β = details: monocytes and macrophages
MMP-2 [10] = details: MDA breast cancer cell line
[11] = test system: monocyte chemoattractant protein-1 (MCP-1); details: monocytes and macrophages
MMP-1 [12] = details: IL-1β pre-stimulated disc cells
IL-6 [13] = test system: IL-6
TNF-α [14] = details: acute pancreatitis mouse model
IL-8 [15] = details: rats with non-bacterial prostatitis
IL-8 [16] = details: 20 μM curcumin
MMP-1 [17] = details: oral, mice; dose dependent manner
[18] = test system: pro-inflammatory cytokines; details: multiple myeloma cell lines
IL-6 [19] = details: rheumatoid synovial fibroblasts
MMP-3 [20] = details: human astroglioma cells
TNF-α [21] = details: rats with non-bacterial prostatitis
MMP-9 [22] = details: chondrocytes
[23] = test system: pro-inflammatory cytokines; details: colon carcinoma cell lines
TNF-α [24] = details: monocytes, high glucose environment
COX2 = details: chondrocytes
NF-κB [25] = details: chondrocytes
collagen type II = details: IVD cells of patients with acute spinal injury
IL-6 [26] = details: monocytes, high glucose environment
MCP-1 [27] = details: viral induced ARDS mouse model
IL-6 [28] = details: Wistar albino rats, experimental acute pancreatitis
MMP-9 [29] = details: A549 in vitro
IL-8 [30] = details: human esophageal epithelial cells
TNF-α [31] = details: Wistar albino rats, experimental acute pancreatitis
IL-12 = details: peritoneal macrophages
[32] = test system: pro-inflammatory cytokines; details: pancreatic carcinoma cell lines
TNF-α [33] = details: monocytes and macrophages
[34] = test system: viral induced acute respiratory distress syndrome; details: viral induced ARDS mouse model
IL-8 [35] = details: monocytes and macrophages
IL-8 [36] = details: viral induced ARDS mouse model
TIMP-2 = details: high concentrations of curcumin
[37] = test system: pro-inflammatory cytokines; details: hepatocellular carcinoma cell lines
MCP-1 [38] = details: monocytes, high glucose environment
MMP-3 [39] = details: oral, mice; dose dependent manner
IL-8 [40] = details: human articular chondrocytes
IL-2 = details: splenic T lymphocytes

T1 sequence (P08254 100-477): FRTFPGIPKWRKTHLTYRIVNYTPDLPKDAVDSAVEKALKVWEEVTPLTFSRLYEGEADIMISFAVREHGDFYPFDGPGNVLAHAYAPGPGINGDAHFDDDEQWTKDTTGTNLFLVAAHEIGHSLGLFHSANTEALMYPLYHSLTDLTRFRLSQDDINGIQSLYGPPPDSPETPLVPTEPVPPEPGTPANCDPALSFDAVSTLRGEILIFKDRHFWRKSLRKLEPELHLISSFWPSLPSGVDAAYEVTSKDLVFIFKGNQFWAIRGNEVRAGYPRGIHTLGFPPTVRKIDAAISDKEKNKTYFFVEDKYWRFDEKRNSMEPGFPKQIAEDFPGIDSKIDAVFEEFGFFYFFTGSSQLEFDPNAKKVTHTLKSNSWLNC

Structure (SMILES): COc1cc(/C=C/C(=O)/C=C(O)/C=C/c2ccc(O)c(OC)c2)ccc1O [curcumin, 1,7-bis(4-hydroxy-3-methoxyphenyl)-1,6-heptadiene-3,5-dione]
- MMP-3 activity (MMP-3 [1]): suppressed
- IL-1 inhibition of SOX9 expression (SOX9): reversed
- MIP-1α release [2]: suppresses
- production of TNF-α (TNF-α [3]): inhibited
- TIMP-1 (TIMP-1): up-regulated
- MMP-3 activity (MMP-3 [4]): inhibited
- type II collagen-induced arthritis [5]: suppress
- production of interferon-γ (interferon-γ): inhibited
- expression of IL-6 (IL-6 [6]): reduced
- MMP-2 (MMP-2 [7]): down-regulated
- IL-6 expression (IL-6 [8]): reduced
- IL-1 induced NF-κB activity (NF-κB [9]): blocked
- IL-1β release (IL-1β): suppresses
- MMP-2 (MMP-2 [10]): inhibited
- MCP-1 release [11]: suppresses
- reduction in MMP-1 expression (MMP-1 [12]; 5 μM curcumin): 22%
- reduction in MMP-1 expression (MMP-1 [12]; 10 μM curcumin): 60%
- reduction in MMP-1 expression (MMP-1 [12]; 20 μM curcumin): 78%
- expression of IL-6 decreased (IL-6 [13]; 10 μM curcumin): 50%
- expression of IL-6 decreased (IL-6 [13]; 20 μM curcumin): 70%
- TNF-α levels (TNF-α [14]): suppression
- IL-8 expression (IL-8 [15]): reduced
- IL-8 expression reduced (IL-8 [16]): 50%
- MMP-1 expression in joints (MMP-1 [17]): suppress
- pro-inflammatory cytokines [18]: suppressed
- release of IL-6 (IL-6 [19]): block
- MMP-3 (MMP-3 [20]): Suppression
- TNF-α expression (TNF-α [21]): reduced
- MMP-9 regulation (MMP-9 [22]): down regulation
- pro-inflammatory cytokines [23]: suppressed
- release of TNF-α (TNF-α [24]): markedly reduced
- COX2 regulation (COX2): down regulation
- IL-1 induced NF-κB activation (NF-κB [25]): decrease
- IL-1 inhibition of collagen type II expression (collagen type II): reversed
- release of IL-6 (IL-6 [26]): markedly reduced
- expression of MCP-1 (MCP-1 [27]): reduced
- IL-6 levels (IL-6 [28]): reduced
- MMP-9 (MMP-9 [29]): Inhibition
- release of IL-8 (IL-8 [30]): block
- TNF-α levels (TNF-α [31]): reduced
- expression of IL-12 (IL-12): inhibited
- pro-inflammatory cytokines [32]: suppressed
- TNF-α release (TNF-α [33]): suppresses
- fibrosis [34]: reduction
- inflammation [34]: marked decrease
- IL-8 release (IL-8 [35]): suppresses
- expression of IL-8 (IL-8 [36]): reduced
- TIMP-2 (TIMP-2): up-regulated
- pro-inflammatory cytokines [37]: suppressed
- release of MCP-1 (MCP-1 [38]): markedly reduced
- MMP-3 expression in joints (MMP-3 [39]): suppress
- release of IL-8 (IL-8 [40]): block
- expression of IL-2 (IL-2): inhibited
